Our source for the effect on growth values is article PMC6173696, “Structural properties of a haemophore facilitate targeted elimination of the pathogen Porphyromonas gingivalis” (Nature Communications, 2018).

This assay concerns P. gingivalis wild type W83. The assay is described as follows: Time-kill experiment with high and low densities of bacteria, iron limited. The assay is classed as cell-based, Porphyromonas gingivalis. The procedure:
Supplementary Figure 22. Time-kill experiment with high and low densities of P. gingivalis wild type W83 in the presence of P8 antibiotic under iron limited condition. (A) Representative planktonic growth curves show control P. gingivalis culture without P8 antibiotic (filled dark blue circle), P8 at 0.5 µM (light blue circle) and 2.5 µM (dash-filled light blue circle) added at the commencement of growth. (B) Representative planktonic growth curves shown control P. gingivalis culture without P8 antibiotic (filled dark blue circle), P8 at 0.5 µM (dash-filled light blue circle) and 2.5 µM (filled light blue circle) added to the exponentially growing cultures.
(1 picture or pasted object on this page, not shown here) […]
1) Fig. 1A still needs confirmation with the inclusion of two additional panels.
(a) Effect of 0.5 µM P8 added to the culture prior to the commencement of growth. (b) Effect of adding 0.5 µM P8 to actively growing cultures of P. gingivalis W83
Response: The growth curve studies, including addition of 0.5µM P8 prior to the commencement of […]
the commencement of growth (low bacteria density).
2.5 µM P8 under the same condition. When added to the actively growing culture (high bacteria density) of P. gingivalis W83, both 0.5 µM and 2.5 µM P8 retard growth with the 2.5 µM P8 treatment achieving a relative lower density at stationary phase. The MIC of P8 is correlated to the initial bacteria densities in the inoculum. Udekwu et al. have reported that higher concentration of antibiotics is required to achieve the MIC when treating higher densities of bacteria albeit with variation according to class of drug […]
As P8 is introduced in the later section of the main text, we have presented the results as Supplementary […]
is not uniform in panel “i”.
3) HSQC spectra for the interaction of HusA with P8 should be provided (analogous to Supplementary
Fig. 18A, where the authors have done a nice job of showing the data down to noise level). Specifically, HSQC superpositions of DPIX and P8 would make for direct comparison. Similarly, the authors would also need to show an HSQC comparison of HusA alone and bound to P8. Indeed, Supplementary Fig. 21 is helpful in analyzing the exchange regimes of a couple of residues, but it doesn't give a global picture of […]

Structures are written as SMILES.

As to `CC1=Cc2cc3[nH]c(cc4nc(cc5[nH]c(cc1n2)cc5C)C(C)=C4CCC(=O)N[C@@H](CCCCNC(=O)OC(C)(C)C)C(=O)NCCn1c([N+](=O)[O-])cnc1C)c(CCC(=O)O)c3C` [P8], the effect on growth result (0.5 µM P8 added prior to the commencement of growth (low bacteria density), dipyridyl) is on record as “retards the growth”; the effect on growth entry (0.5 µM P8 added to the actively growing culture (high bacteria density)) was “retard growth”; the effect on growth result (2.5 µM P8 added prior to the commencement of growth, dipyridyl) is “fails to growth”; the effect on growth entry (2.5 µM P8 added to the actively growing culture, relative lower density at stationary phase) was “retard growth”.
